Literature values as cited in paper PMC6105163, “Abaloparatide Exerts Bone Anabolic Effects with Less Stimulation of Bone Resorption-Related Factors: A Comparison with Teriparatide” (Calcified Tissue International, 2018).
Ends that are not written are not given here.

Experiments:
bone mass = conditions: cited from earlier work; for effect of continuous infusion: in vivo; for bone mass, intermittent administration: ref [2], [3]
From the text: Parathyroid hormone (PTH) and PTH-related protein (PTHrP) have a common G protein-coupled receptor, PTH1R, which plays a pivotal role in bone turnover and calcium homeostasis.

bone turnover = conditions: preclinical study, ref [25], cited from earlier work
From the text: (§1) There is another possibility that the two peptides could show the different activity on protein kinase C (PKC). PKC is the downstream signal of PTH1R and is involved in the stimulation of bone resorption-related factors and bone catabolism. In fact, ostabolin, an amidated form of human PTH(1–31), differs from PTH(1–34) in PKC activation.

cAMP and PKC = conditions: ref [24]; cited from earlier work
From the text: as §1

PTH: Parathyroid hormone
effect of continuous infusion (bone mass): caused bone loss and hypercalcemia | bone mass, intermittent administration (bone mass): increased bone mass

PTHrP: PTH-related protein
effect of continuous infusion (bone mass): caused bone loss and hypercalcemia | bone mass, intermittent administration (bone mass): increased bone mass

ostabolin: an amidated form of human PTH(1–31) (SVSEIQLMHNLGKHLNSMERVEWLRKKLQDV-NH2; UniProt P01270 32-62, looked up, fragment)
bone resorption (bone turnover; vs PTH(1–34)): less effect on bone resorption than PTH(1–34) | bone formation (bone turnover): stimulated bone formation similar to PTH(1–34) | cAMP accumulation and PKC activation (cAMP and PKC): cAMP accumulation without activating PKC
